Tests used:
[1] = target: T1, Endothelin receptor type B (Homo sapiens, UniProt P24530); assay: Antagonist activity towards human recombinant Endothelin B receptor expressed in chinese hamster ovary (CHO) cells determined using [125I]ET1 as radioligand; type: functional, cell-based
T1 sequence (P24530 whole entry): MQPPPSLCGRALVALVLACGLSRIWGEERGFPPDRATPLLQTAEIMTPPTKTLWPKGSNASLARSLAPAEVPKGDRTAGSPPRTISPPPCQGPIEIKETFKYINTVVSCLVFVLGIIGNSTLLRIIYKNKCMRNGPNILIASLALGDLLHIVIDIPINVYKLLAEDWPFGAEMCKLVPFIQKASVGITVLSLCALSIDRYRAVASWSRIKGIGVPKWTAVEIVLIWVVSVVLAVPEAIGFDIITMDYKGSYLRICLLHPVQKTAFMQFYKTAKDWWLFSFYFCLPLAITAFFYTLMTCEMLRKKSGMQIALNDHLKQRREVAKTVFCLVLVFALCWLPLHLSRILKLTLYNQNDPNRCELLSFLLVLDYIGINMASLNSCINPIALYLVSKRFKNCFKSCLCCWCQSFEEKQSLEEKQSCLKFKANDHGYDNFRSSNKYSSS

Endothelin-1 receptor = target: T2, Endothelin-1 receptor (Homo sapiens, UniProt P25101); assay: Antagonist activity towards human recombinant Endothelin A receptor expressed in chinese hamster ovary (CHO) cells determined using [125I]ET1 as radioligand; type: functional, cell-based
T2 sequence (P25101 whole entry): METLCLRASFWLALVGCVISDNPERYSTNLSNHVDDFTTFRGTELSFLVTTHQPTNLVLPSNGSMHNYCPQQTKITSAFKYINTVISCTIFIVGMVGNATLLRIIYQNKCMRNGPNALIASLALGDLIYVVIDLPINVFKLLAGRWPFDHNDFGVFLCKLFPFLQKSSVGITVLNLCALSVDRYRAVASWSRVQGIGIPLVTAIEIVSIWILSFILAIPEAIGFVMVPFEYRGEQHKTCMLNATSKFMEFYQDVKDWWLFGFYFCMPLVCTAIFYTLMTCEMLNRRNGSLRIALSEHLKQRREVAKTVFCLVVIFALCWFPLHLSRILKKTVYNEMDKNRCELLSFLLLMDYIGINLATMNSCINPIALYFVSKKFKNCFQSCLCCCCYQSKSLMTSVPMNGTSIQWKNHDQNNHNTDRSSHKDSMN

Endothelin receptor = target: T3, Endothelin receptor (Rattus norvegicus, UniProt P26684+P21451); assay: Inhibitory potency at native endothelin A and endothelin B receptors by inhibiting endothelin-1 contractions of rat aortic rings; type: functional
T3 sequence (P26684 whole entry): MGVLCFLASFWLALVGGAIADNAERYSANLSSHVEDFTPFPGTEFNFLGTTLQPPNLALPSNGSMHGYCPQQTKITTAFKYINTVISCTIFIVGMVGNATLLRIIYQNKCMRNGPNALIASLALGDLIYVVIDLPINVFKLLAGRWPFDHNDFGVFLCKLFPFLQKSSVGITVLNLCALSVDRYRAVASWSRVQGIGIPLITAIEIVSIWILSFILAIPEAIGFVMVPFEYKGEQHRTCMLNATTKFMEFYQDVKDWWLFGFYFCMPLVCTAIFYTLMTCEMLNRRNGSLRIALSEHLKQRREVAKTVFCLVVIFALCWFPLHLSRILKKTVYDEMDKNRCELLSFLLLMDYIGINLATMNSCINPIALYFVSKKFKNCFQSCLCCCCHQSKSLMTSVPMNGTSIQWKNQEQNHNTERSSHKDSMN
T3 sequence (P21451 whole entry): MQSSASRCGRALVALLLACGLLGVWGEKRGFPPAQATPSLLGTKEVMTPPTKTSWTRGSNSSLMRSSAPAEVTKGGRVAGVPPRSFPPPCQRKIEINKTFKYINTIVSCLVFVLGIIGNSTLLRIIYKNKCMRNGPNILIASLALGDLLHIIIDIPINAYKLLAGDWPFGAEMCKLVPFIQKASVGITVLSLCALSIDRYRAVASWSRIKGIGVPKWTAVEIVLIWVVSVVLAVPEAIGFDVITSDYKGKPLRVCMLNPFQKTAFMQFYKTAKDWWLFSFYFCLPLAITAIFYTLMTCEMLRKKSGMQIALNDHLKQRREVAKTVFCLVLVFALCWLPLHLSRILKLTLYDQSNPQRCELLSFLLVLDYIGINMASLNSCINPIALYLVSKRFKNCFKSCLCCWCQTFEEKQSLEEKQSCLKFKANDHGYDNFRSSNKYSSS

SMILES | IC50 [1] [nM] | IC50 (Endothelin-1 receptor) [nM] | pA2 (Endothelin receptor)
CSc1cnc(O[C@H](C(=O)O)[C@@]2(c3ccccc3)NCC(=O)N(C)c3ccccc32)nc1 (racemic) | > 10000 | 6600 | –
COc1ccccc1O[C@H](C(=O)O)[C@@]1(c2ccccc2)NCC(=O)N(Cc2c(Cl)cccc2Cl)c2ccccc21 (racemic) | > 10000 | 5920 | –
COC(=O)c1ccc(CN2C(=O)CN[C@](c3ccccc3)([C@H](Oc3nc(C)cc(C)n3)C(=O)O)c3ccccc32)cc1 (racemic) | 70.3 | 7.4 | 6.98
COc1ccc(CN2C(=O)CN[C@](c3cccc(-c4ccccc4)c3)([C@H](Oc3nc(C)cc(C)n3)C(=O)O)c3ccccc32)cc1 (racemic) | 86.8 | 3 | 7.28
COc1ccc(CN2C(=O)CN[C@](c3cccc(OC)c3)([C@H](Oc3nc(C)cc(C)n3)C(=O)O)c3ccccc32)cc1 (racemic) | 94.3 | 10.2 | –
COc1ccc(CN2C(=O)CN[C@](c3ccccc3)([C@H](Oc3nc(C)cc(C)n3)C(=O)O)c3ccccc32)cc1 (racemic) | 22.4 | – | 7.08
CCc1cc(CC)nc(O[C@H](C(=O)O)[C@@]2(c3ccccc3)NCC(=O)N(C)c3ccccc32)n1 (racemic) | 654 | 20.5 | –
COc1cnc(O[C@H](C(=O)O)[C@@]2(c3ccccc3)NCC(=O)N(C)c3ccccc32)nc1 (racemic) | 9250 | 384 | –
Cc1cc(C)nc(O[C@H](C(=O)O)[C@@]2(c3ccccc3)NCC(=O)N(Cc3cccc(Cl)c3)c3ccccc32)n1 (racemic) | 21.4 | 5.8 | –
COc1ccc(CN2C(=O)CN[C@](C3CCCCC3)([C@H](Oc3nc(C)cc(C)n3)C(=O)O)c3ccccc32)cc1 (racemic) | 105 | 112 | –
CCCCC[C@]1([C@H](Oc2nc(C)cc(C)n2)C(=O)O)NCC(=O)N(Cc2ccc(OC)cc2)c2ccccc21 (racemic) | 73.6 | 355 | –
Cc1cc(C)nc(O[C@H](C(=O)O)[C@@]2(c3ccccc3)NCc3c(C(=O)O)nc(C)n3-c3ccccc32)n1 (racemic) | 711 | 604 | –
Cc1cc(C)nc(O[C@H](C(=O)O)[C@@]2(c3ccccc3)NCC(=O)N(CCCC(=O)O)c3ccccc32)n1 (racemic) | 253 | 45.9 | –
CCCCc1ccc(CN2C(=O)CN[C@](c3ccccc3)([C@H](Oc3nc(C)cc(C)n3)C(=O)O)c3ccccc32)cc1 (racemic) | 11.1 | 3.5 | 7.84
Cc1cc(C)nc(O[C@H](C(=O)O)[C@@]2(c3ccccc3)NCC(=O)N(Cc3cc(F)c(F)cc3F)c3ccccc32)n1 (racemic) | 72.7 | 7.2 | –
Cc1cc(C)nc(O[C@H](C(=O)O)[C@@]2(c3ccccc3)NCC(=O)N(Cc3ccc(F)c(F)c3)c3ccccc32)n1 (racemic) | 32.8 | 6.5 | –
Cc1cc(C)nc(O[C@H](C(=O)O)[C@@]2(c3ccccc3)NCC(=O)N(Cc3c(F)cccc3Cl)c3ccccc32)n1 (racemic) | 10.9 | – | 7.8
Cc1cc(C)nc(O[C@H](C(=O)O)[C@@]2(c3ccccc3)NCC(=O)N(Cc3ccc(OC(F)(F)F)cc3)c3ccccc32)n1 (racemic) | 32.2 | 2.5 | 7.59
Cc1cc(C)nc(O[C@H](C(=O)O)[C@@]2(c3ccccc3)NCC(=O)N(Cc3ccc(C(F)(F)F)cc3)c3ccccc32)n1 (racemic) | 47.1 | 17 | –
Cc1cccc(CN2C(=O)CN[C@](c3ccccc3)([C@H](Oc3nc(C)cc(C)n3)C(=O)O)c3ccccc32)c1 (racemic) | 16.7 | 5 | –

SMILES | IC50 [1] [nM] | IC50 (Endothelin-1 receptor) [nM] | pA2 (Endothelin receptor)
Cc1cc(C)nc(O[C@H](C(=O)O)[C@@]2(c3ccccc3)NCC(=O)N(Cc3cc(F)ccc3F)c3ccccc32)n1 (racemic) | 32.9 | 6.7 | –
Cc1cc(C)nc(O[C@H](C(=O)O)[C@@]2(c3ccccc3)NCC(=O)N(Cc3ccc(-c4ccccc4)cc3)c3ccccc32)n1 (racemic) | 534 | 102 | –
Cc1cc(C)nc(O[C@H](C(=O)O)[C@@]2(c3ccccc3)NCC(=O)N(Cc3c(F)ccc(F)c3F)c3ccccc32)n1 (racemic) | 13.2 | 2.4 | 8.38
COc1cccc(O[C@H](C(=O)O)[C@@]2(c3ccccc3)NCC(=O)N(Cc3c(Cl)cccc3Cl)c3ccccc32)c1 (racemic) | 1470 | 129 | –
Cc1ccc(O[C@H](C(=O)O)[C@@]2(c3ccccc3)NCC(=O)N(Cc3c(Cl)cccc3Cl)c3ccccc32)cc1 (racemic) | 966 | 156 | –
Cc1cc(C)nc(O[C@H](C(=O)O)[C@@]2(c3ccccc3)NCC(=O)N(CCC3CCCCC3)c3ccccc32)n1 (racemic) | 153 | 146 | –
Cc1cc(C)nc(O[C@H](C(=O)O)[C@@]2(c3ccccc3)NCC(=O)N(Cc3cc(F)c(F)c(F)c3)c3ccccc32)n1 (racemic) | 25.3 | 11.8 | –
Cc1cccc(O[C@H](C(=O)O)[C@@]2(c3ccccc3)NCC(=O)N(Cc3c(Cl)cccc3Cl)c3ccccc32)c1 (racemic) | 745 | 29 | –
COc1ccc(CN2C(=O)CN[C@](c3ccc(F)c(C)c3)([C@H](Oc3nc(C)cc(C)n3)C(=O)O)c3ccccc32)cc1 (racemic) | 33.2 | 7.3 | 6.53
Cc1cc(C)nc(O[C@H](C(=O)O)[C@@]2(c3ccccc3)NCC(=O)N(Cc3ccccc3)c3ccccc32)n1 (racemic) | 47.4 | 6.4 | 7.32
COc1cc(OC)cc(O[C@H](C(=O)O)[C@@]2(c3ccccc3)NCC(=O)N(C)c3ccc(Cl)cc32)c1 (racemic) | 1810 | 262 | –
Cc1cc(C)nc(O[C@H](C(=O)O)[C@@]2(c3ccccc3)NCC(=O)N(CCc3ccccc3)c3ccccc32)n1 (racemic) | 21.5 | 3.9 | 7.46
Cc1cc(C)nc(O[C@H](C(=O)O)[C@@]2(c3ccccc3)NCC(=O)N(CCN3CCOCC3)c3ccccc32)n1 (racemic) | 743 | 126 | –
COc1ccc(CN2C(=O)CN[C@](c3cccc(Cl)c3)([C@H](Oc3nc(C)cc(C)n3)C(=O)O)c3ccccc32)cc1 (racemic) | 78.2 | 25 | –
Cc1cc(C)nc(O[C@H](C(=O)O)[C@@]2(c3ccccc3)NCCCc3ccccc32)n1 (racemic) | 7840 | 91.7 | –
Cc1cc(C)nc(O[C@H](C(=O)O)[C@@]2(c3ccccc3)NCC(=O)N(Cc3ccccc3OC(F)(F)F)c3ccccc32)n1 (racemic) | 74.9 | 98.6 | –
Cc1cc(C)nc(O[C@H](C(=O)O)[C@@]2(c3ccccc3)NCC(=O)N(Cc3cccc(OC(F)(F)F)c3)c3ccccc32)n1 (racemic) | 30.8 | 11 | –
CN1C(=O)CN[C@](c2ccccc2)([C@H](Oc2ncc(Br)cn2)C(=O)O)c2ccccc21 (racemic) | 9480 | 927 | –
Cc1cc(C)nc(O[C@H](C(=O)O)[C@@]2(c3ccccc3)NCC(=O)N(Cc3ccccc3F)c3ccccc32)n1 (racemic) | 33.1 | 3.5 | 7.22
Cc1cc(C)nc(O[C@H](C(=O)O)[C@@]2(c3ccccc3)NCCOc3ccccc32)n1 (racemic) | 3640 | 69.8 | –

Reference: ChEMBL document CHEMBL1149183, “Novel benzo[1,4]diazepin-2-one derivatives as endothelin receptor antagonists” (J Med Chem, 2004)
